We go through 27 compounds from patent US9867833B2, “Serine/threonine kinase inhibitors” (GENENTECH, INC., priority 2013, dated 2018).

For the test, the target named is human ERK-2 (Mitogen Activated Kinase 1) (Homo sapiens (Human), UniProt P28482). As to the kind of experiment: ERK-2 Enzymatic Assay. It is filed as biochemical. The following applies: human ERK-2 enzyme 5 nM, 25 μM ATP, S/T17 peptide substrate; isomer = configuration of CR2R3. The procedure, abridged:
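Recombinant human ERK-2 (aa 8-360, N-terminal 6-His, E. coli) with 3-fold serially diluted compound. Per-well rates from linear fits converted to percent of control; IC50 by four-parameter fit.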

SMILES strings stand for the structures.

Chain of human ERK-2 (Mitogen Activated Kinase 1) (P28482 8-360): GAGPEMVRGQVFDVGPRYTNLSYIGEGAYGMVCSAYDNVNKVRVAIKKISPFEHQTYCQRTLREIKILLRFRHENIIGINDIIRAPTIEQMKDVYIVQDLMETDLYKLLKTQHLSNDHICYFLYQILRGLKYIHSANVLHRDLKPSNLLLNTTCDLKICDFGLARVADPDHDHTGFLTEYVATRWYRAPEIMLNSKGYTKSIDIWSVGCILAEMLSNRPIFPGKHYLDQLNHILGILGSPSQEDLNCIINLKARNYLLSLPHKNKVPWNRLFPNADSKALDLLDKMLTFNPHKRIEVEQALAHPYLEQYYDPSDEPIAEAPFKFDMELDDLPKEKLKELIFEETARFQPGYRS

With `Cn1nccc1Nc1nccc(-c2cc3n4c(nnc4c2)[C@@H](CCC(F)(F)F)CCO3)n1` [(S) I-102, N-(1-methyl-1H-pyrazol-5-yl)-4-(9-(3,3,3-trifluoropropyl)-8,9-dihydro-7H-6-oxa-1,2,2a^1-triazabenzo[cd]azulen-4-yl)pyrimidin-2-amine], the IC50 amounted to 0.025 nM.

`CCC[C@H]1CCOc2cc(-c3ccnc(Nc4ccnn4C)c3)cc3nnc1n23` [(S) I-103, N-(1-methyl-1H-pyrazol-5-yl)-4-(9-propyl-8,9-dihydro-7H-6-oxa-1,2,2a^1-triazabenzo[cd]azulen-4-yl)pyridin-2-amine]: half-maximal inhibition (IC50) was put at 0.026 nM.

Take `CCC[C@H]1CCOc2cc(-c3ccnc(Nc4ccnn4C)n3)cc3nnc1n23` [(S) I-104, N-(1-methyl-1H-pyrazol-5-yl)-4-(9-propyl-8,9-dihydro-7H-6-oxa-1,2,2a^1-triazabenzo[cd]azulen-4-yl)pyrimidin-2-amine]: the IC50 was less than 0.02 nM.

`CC(C)C[C@H]1CCOc2cc(-c3ccnc(Nc4ccnn4C)n3)cc3nnc1n23` [(S) I-107, 4-(9-isobutyl-8,9-dihydro-7H-6-oxa-1,2,2a^1-triazabenzo[cd]azulen-4-yl)-N-(1-methyl-1H-pyrazol-5-yl)pyrimidin-2-amine] displayed an IC50 of 0.023 nM.

On to `Cn1nccc1Nc1nccc(-c2cc3n4c(nnc4c2)[C@@H](Oc2ccc(F)cc2)CCO3)n1` [(S) I-108, 4-(9-(4-fluorophenoxy)-8,9-dihydro-7H-6-oxa-1,2,2a^1-triazabenzo[cd]azulen-4-yl)-N-(1-methyl-1H-pyrazol-5-yl)pyrimidin-2-amine], for which the IC50 is less than 0.02 nM.

With `Clc1cnn(C[C@@H]2CCOc3cc(-c4ccnc(NC5CCOCC5)n4)cc4nnc2n34)c1` [(S) I-110, 4-(9-((4-chloro-1H-pyrazol-1-yl)methyl)-8,9-dihydro-7H-6-oxa-1,2,2a^1-triazabenzo[cd]azulen-4-yl)-N-(tetrahydro-2H-pyran-4-yl)pyrimidin-2-amine], the half-maximal inhibitory concentration (IC50) stood at 0.14 nM.

Take `Cn1nccc1Nc1nccc(-c2cc3n4c(nnc4c2)[C@@H](Oc2ccc(F)c(F)c2)CCO3)n1` [(S) I-111, 4-(9-(3,4-difluorophenoxy)-8,9-dihydro-7H-6-oxa-1,2,2a^1-triazabenzo[cd]azulen-4-yl)-N-(1-methyl-1H-pyrazol-5-yl)pyrimidin-2-amine]: the half-maximal inhibitory concentration (IC50) is less than 0.02 nM.

`CC(C)[C@H]1CNc2cc(-c3ccnc(Nc4ccnn4C)n3)cc3nnc1n23` [Compound I-3, S-4-(3-isopropyl-4,5-dihydro-3H-1,2,2a^1,5-tetraazaacenaphthylen-7-yl)-N-(1-methyl-1H-pyrazol-5-yl)pyrimidin-2-amine] came in with a half-inhibitory concentration (IC50) of 0.039 nM.

As for `CN1C(=O)N[C@H](Cc2ccc(Cl)cc2)c2nnc3cc(-c4ccnc(Nc5ccnn5C)n4)cc1n23` [Compound I-6, (R)-9-(4-chlorobenzyl)-6-methyl-4-(2-((1-methyl-1H-pyrazol-5-yl)amino)pyrimidin-4-yl)-8,9-dihydro-1,2,2a^1,6,8-pentaazabenzo[cd]azulen-7(6H)-one], half-maximal inhibition (IC50) required 0.023 nM.

`CC(C)C[C@@H]1c2nnc3cc(-c4ccnc(Nc5ccnn5C)n4)cc(n23)N(C)C(=O)N1C` [Compound I-19, (R)-9-isobutyl-6,8-dimethyl-4-(2-((1-methyl-1H-pyrazol-5-yl)amino)pyrimidin-4-yl)-8,9-dihydro-1,2,2a^1,6,8-pentaazabenzo[cd]azulen-7(6H)-one] came in with a half-maximal inhibitory concentration (IC50) of 1.15 nM.

For the compound `CC(C)C[C@@H]1c2nnc3cc(-c4ccnc(Nc5ccnn5C)n4)cc(n23)NC(=O)N1C` [Compound I-23, (R)-9-isobutyl-8-methyl-4-(2-((1-methyl-1H-pyrazol-5-yl)amino)pyrimidin-4-yl)-8,9-dihydro-1,2,2a^1,6,8-pentaazabenzo[cd]azulen-7(6H)-one], the IC50 came out at 1.12 nM.

Take `CC(C)C[C@H]1NC(=O)N(C)c2cc(-c3ccnc(Nc4ccnn4C)c3)cc3nnc1n23` [Compound I-25, (R)-9-isobutyl-6-methyl-4-(2-((1-methyl-1H-pyrazol-5-yl)amino)pyridin-4-yl)-8,9-dihydro-1,2,2a^1,6,8-pentaazabenzo[cd]azulen-7(6H)-one]: the IC50 worked out at 4.28 nM.

`COc1ccc(C[C@H]2NC(=O)N(C)c3cc(-c4ccnc(Nc5ccnn5C)c4)cc4nnc2n34)cc1` [Compound I-26, (R)-9-(4-methoxybenzyl)-6-methyl-4-(2-((1-methyl-1H-pyrazol-5-yl)amino)pyridin-4-yl)-8,9-dihydro-1,2,2a^1,6,8-pentaazabenzo[cd]azulen-7(6H)-one]: inhibition was half-maximal at 0.39 nM (IC50).

In the case of `CN1C(=O)N(Cc2ccccc2)c2nnc3cc(-c4ccnc(Nc5ccnn5C)n4)cc1n23` [Compound I-28, 3-benzyl-5-methyl-7-(2-((1-methyl-1H-pyrazol-5-yl)amino)pyrimidin-4-yl)-3H-1,2,2a^1,3,5-pentaazaacenaphthylen-4(5H)-one], the 50% inhibitory concentration (IC50) worked out at 0.02 nM.

Take `CN1C(=O)N[C@H](Cc2cccc(F)c2)c2nnc3cc(-c4ccnc(Nc5ccnn5C)n4)cc1n23` [Compound I-39, (R)-9-(3-fluorobenzyl)-6-methyl-4-(2-((1-methyl-1H-pyrazol-5-yl)amino)pyrimidin-4-yl)-8,9-dihydro-1,2,2a^1,6,8-pentaazabenzo[cd]azulen-7(6H)-one]: the 50% inhibitory concentration (IC50) is 0.215 nM.

The compound `CN1C(=O)N[C@H](CC2CC2)c2nnc3cc(-c4ccnc(Nc5ccnn5C)n4)cc1n23` [Compound I-51, (R)-9-(cyclopropylmethyl)-6-methyl-4-(2-((1-methyl-1H-pyrazol-5-yl)amino)pyrimidin-4-yl)-8,9-dihydro-1,2,2a^1,6,8-pentaazabenzo[cd]azulen-7(6H)-one] came in with an IC50 of 2.34 nM.

Regarding `Cn1nccc1Nc1nccc(-c2cc3n4c(nnc4c2)C(Cn2cc(C(F)(F)F)cn2)CCO3)n1` (stereo not drawn) [Compound I-73, N-(1-methyl-1H-pyrazol-5-yl)-4-(9-((4-(trifluoromethyl)-1H-pyrazol-1-yl)methyl)-8,9-dihydro-7H-6-oxa-1,2,2a^1-triazabenzo[cd]azulen-4-yl)pyrimidin-2-amine], the half-maximal inhibitory concentration (IC50) was less than 0.02 nM.

`CN1C(=O)CC(Cc2ccc(F)cc2)c2nnc3cc(-c4ccnc(Nc5ccnn5C)n4)cc1n23` (stereo not drawn) [Compound I-79, 9-(4-fluorobenzyl)-6-methyl-4-(2-((1-methyl-1H-pyrazol-5-yl)amino)pyrimidin-4-yl)-8,9-dihydro-1,2,2a^1,6-tetraazabenzo[cd]azulen-7(6H)-one] yielded an IC50 of 17 nM.

Regarding `CN1C(=O)C[C@H](Cc2cccc(Cl)c2)c2nnc3cc(-c4ccnc(Nc5ccnn5C)n4)cc1n23` [Compound I-80, (S)-9-(3-chlorobenzyl)-6-methyl-4-(2-((1-methyl-1H-pyrazol-5-yl)amino)pyrimidin-4-yl)-8,9-dihydro-1,2,2a^1,6-tetraazabenzo[cd]azulen-7(6H)-one], the IC50 is less than 0.02 nM.

With `COc1cccc(CC2COc3cc(-c4ccnc(Nc5ccnn5C)n4)cc4nnc2n34)c1` (stereo not drawn) [Compound I-81, 4-(3-(3-methoxybenzyl)-3,4-dihydro-5-oxa-1,2,2a^1-triazaacenaphthylen-7-yl)-N-(1-methyl-1H-pyrazol-5-yl)pyrimidin-2-amine], the 50% inhibitory concentration (IC50) is less than 0.02 nM.

The compound `Cn1nccc1Nc1cc(-c2cc3n4c(nnc4c2)C(Cc2ccc(F)c(Cl)c2)CO3)ccn1` (stereo not drawn) [Compound I-83, 4-(3-(3-Chloro-4-fluorobenzyl)-3,4-dihydro-5-oxa-1,2,2a^1-triazaacenaphthylen-7-yl)-N-(1-methyl-1H-pyrazol-5-yl)pyridin-2-amine] came in with an IC50 of 0.111 nM.

With `CN1C(=O)C[C@@H](Cc2ccc(Cl)cn2)c2nnc3cc(-c4ccnc(Nc5ccnn5C)c4)cc1n23` [Compound I-94, (R)-9-((5-chloropyridin-2-yl)methyl)-6-methyl-4-(2-((1-methyl-1H-pyrazol-5-yl)amino)pyridin-4-yl)-8,9-dihydro-1,2,2a^1,6-tetraazabenzo[cd]azulen-7(6H)-one], the IC50 turned out to be 598 nM.

Regarding `Cn1nccc1Nc1nccc(-c2cc3n4c(nnc4c2)C(C2CC2)CO3)n1` (stereo not drawn) [Compound I-95, 4-(3-cyclopropyl-3,4-dihydro-5-oxa-1,2,2a^1-triazaacenaphthylen-7-yl)-N-(1-methyl-1H-pyrazol-5-yl)pyrimidin-2-amine], it took 0.751 nM to reach half-maximal inhibition (IC50).

In turn, `Cn1nccc1Nc1cc(-c2cc3n4c(nnc4c2)C(Cc2cccc(Cl)c2)CO3)ccn1` (stereo not drawn) [Compound I-96, 4-(3-(3-chlorobenzyl)-3,4-dihydro-5-oxa-1,2,2a^1-triazaacenaphthylen-7-yl)-N-(1-methyl-1H-pyrazol-5-yl)pyridin-2-amine] came in with an IC50 of 0.149 nM.

`CN1C(=O)N(Cc2ccc(Cl)cc2)c2nnc3cc(-c4ccnc(Nc5ccnn5C)n4)cc1n23` [Compound I-98, 3-(4-chlorobenzyl)-5-methyl-7-(2-((1-methyl-1H-pyrazol-5-yl)amino)pyrimidin-4-yl)-3H-1,2,2a^1,3,5-pentaazaacenaphthylen-4(5H)-one] came in with a 50% inhibitory concentration (IC50) of 0.273 nM.

Take `CN1C(=O)N(Cc2cc(F)cc(F)c2)c2nnc3cc(-c4ccnc(Nc5ccnn5C)n4)cc1n23` [Compound I-99, 3-(3,5-difluorobenzyl)-5-methyl-7-(2-((1-methyl-1H-pyrazol-5-yl)amino)pyrimidin-4-yl)-3H-1,2,2a^1,3,5-pentaazaacenaphthylen-4(5H)-one]: the concentration for half-maximal inhibition (IC50) stood at 0.113 nM.

`CN1C(=O)N(Cc2cccc(Cl)c2)c2nnc3cc(-c4ccnc(Nc5ccnn5C)n4)cc1n23` [Compound I-100, 3-(3-chlorobenzyl)-5-methyl-7-(2-((1-methyl-1H-pyrazol-5-yl)amino)pyrimidin-4-yl)-3H-1,2,2a^1,3,5-pentaazaacenaphthylen-4(5H)-one] had an IC50 of less than 0.02 nM.
